Among the data in patent US10407445B2, “Hepatitis C virus inhibitors” (ENANTA PHARMACEUTICALS, INC., priority 2013, dated 2019) are EC50 values, retold here.

The structures appear in SMILES notation. Like-named read-outs stand apart in the source and are kept apart here.

Assay type in all cases: cell-based
Assay [1] relates to GT1a replicon encoding NS5A mutation L31V. As to the kind of experiment: Transient replication assay, GT1a replicon with NS5A mutation L31V. The conditions noted are these: Hepatitis C virus. (In general: Replicon systems follow genome replication, usually without infectious particles.)
A further assay concerns HCV GT 2a-J6 replicon. As to the kind of experiment: HCV replicon assay, GT2a chimeric replicon expressing NS5A from GT2a strain J6. The conditions noted are these: Hepatitis C virus, read-out: EC50 (nM) 2a-J6. The protocol: (§1) The activity of compounds was determined against HCV replicons representing genotypes (GT) 1a, 1b, 2a, and 3a. To generate stable Huh-7.5-based cell lines, HCV replicons were engineered to express the Renilla luciferase reporter (hRluc) fused to the neomycin phosphotransferase (Neo) gene. GT2a and GT3a HCV replicons were based on the JFH-1 subgenomic replicon (Kato et al. 2003 Gastroenterology, 125:1808-1817), in which the NS5A gene was replaced with that of strains J6 and S52 (GT2a and G3a, respectively). The activity of compounds against GT1a replicons encoding NS5A mutations (M28T, Q30R, L31M, Y93C, and Y93H) was also determined in a transient replication assay. The parental GT1a and GT2a replicons (pH/SG-Neo(L+I) and pSG-Neo-JFH1, respectively) were licensed from Apath LLC (Saint Louis, Mo.). The parental GT 1b replicon (pFKi389lucubineo_3_3′_ET) was licensed from ReBLikon GmbH (Germany). HCV replicons were constructed by standard molecular biology techniques described below. All replicon constructs were verified by restriction enzyme digestion and DNA sequencing.
(§2) The plasmid pSG-hRlucNeo-JFH1 was generated from pSG-Neo-JFH1 (Kato et al. 2003, Gastroentrology 125:1808-1817). A fragment containing the JFH-1 5′ NTR—hRluc-Neo gene and two unique restriction sites (AgeI and PmeI) was synthesized (Integrated DNA Technologies, Coralville, Iowa). The resulting synthetic plasmid was digested with AgeI and PmeI and the excised fragment (5′NTR-hRluc-Neo) was ligated into pSG-Neo-JFH1 digested with the same enzymes to generate pSG-hRlucNeo-JFH1. To allow expression of heterologous NS5A sequences, an NS5A shuttle vector was generated from pSG-Neo-JFH1, in which the entire coding sequence of NS5A plus the first eight codons of NS5B were replaced with an AfeI restriction site. This was done by Infusion cloning (Clontech, Mountain View, Calif.) from two PCR products that were generated using pSG-Neo-JFH1 as a template and the following primer pairs:
(§3) Underlined sequences denote regions of overlap necessary for Infusion cloning. Purified PCR products were cloned directly into an NsiI/SnaBI digested pSG-Neo-JFH1 following the manufacturer's instructions to generate pSG-Neo-JFH1-5Ashuttle. The 2023 base pair AgeI/PmeI fragment from pSG-hRlucNeo-JFH1 was then ligated into pSG-Neo-JFH1-5Ashuttle to generate pSG-hRlucNeo-JFH1-5Ashuttle. To generate the 2a-2a-(J6) and 2a-3a-(S52) NS5A chimeric replicons, the full length NS5A sequences from GT2a strain J6 (accession AF177036) and GT3a strain S52 (accession GU814263), with the addition of the first eight codons of JFH-1 NS5B (5′-TCCATGTCATACTCCTGGACCGGG-3′), were synthesized by GeneArt (Life Technologies, Carlsbad Calif.). J6 and S52 NS5A sequences were then PCR amplified from the synthetic clones using the appropriate forward primer:
(§4) Underlined sequences denote regions of overlap with pSG-hRlucNeo-JFH1-5Ashuttle necessary for Infusion cloning. Purified PCR products were directly cloned into AfeI-digested shuttle vector by Infusion cloning following the manufacturer's instructions.
(§5) Stable HCV replicon cell lines were grown in complete media (Dulbecco's modified Eagle medium [DMEM], 2 mM L-glutamine, 0.1 mM essential amino acids, 1 mM sodium pyruvate, 10% heat inactivated fetal bovine serum) with the addition 500 μg/ml […] (G418). Huh7-lunet cells were maintained in the same medium without the addition of G418. Cells were routinely passaged at a dilution of 1:4 two times a week. The assay medium for both luciferase reporter HCV replicon and cytotoxicity assays used phenol red-free DMEM and lacked G418. For each stable replicon assay, a sixteen point half-log dilution series of compound was stamped (0.5 ul compound per well) into three replica 384-well plates, to which cells were added directly (4000 cells/well). […]

Assay [2] has as its system GT1a replicon encoding NS5A mutation Y93C. Put plainly: Transient replication assay, GT1a replicon with NS5A mutation Y93C. The conditions noted are these: Hepatitis C virus.
The next assay concerns HCV GT 3a replicon. As to the kind of experiment: HCV replicon assay, GT2a chimeric replicon expressing NS5A from GT3a strain S52. The note with it: Hepatitis C virus, read-out: EC50 (nM) 3a. As to the method:
as §1, §2, §3, §4, §5

For assay [3], the system named is GT1a replicon encoding NS5A mutation Q30R. As to the kind of experiment: Transient replication assay, GT1a replicon with NS5A mutation Q30R. The note with it: Hepatitis C virus.
A further assay has as its system HCV GT 1a replicon. Put plainly: HCV replicon assay, stable GT 1a replicon (Renilla luciferase). The conditions noted are these: Hepatitis C virus, GT1A. The protocol:
as §1
pH/SG-Neo(L+I) was modified to add the firefly luciferase reporter gene and additional adaptive mutations by replacing the pH/SG-Neo(L+I) NS3-NS5A coding region with the corresponding sequence of pH77-S, creating pH/SG-lucubineo-H77S as described (Borawski J et al. 2009, J Virol 83: 10058-10074). Subsequently, the firefly luciferase-Neo cassette was replaced with the hRluc-Neo cassette. To create a unique cloning site, the NotI restriction site in NS5B was removed using QuickChange II XL Site-Directed Mutagenesis Kit (Agilent) and the following primers: NotI KO Fwd 5′-CTCAAACTCACTCCAATAGCTGCCGCTGGCCGGCTGGAC-3′(G→T mutation removing NotI site underlined) (SEQ. ID No. 1) and NotI KO Rev 5′-GTCCAGCGGGCCAGCGGCAGCTATTGGAGTGAGTTTGAG-3′(C→A mutation removing NotI site underlined) (SEQ. ID No. 2). The resulting vector, pH/SG-lucubineo-H775-NotIKO, was sequenced to confirm the NS5B gene. The hRluc-Neo cassette was PCR amplified from pF9 cytomegalovirus (CMV) hRluc-Neo Flexi(R) (Promega) using Accuprime Super Mix II (Invitrogen) and the following primers, which introduce restriction sites: […]
The amplification product was subcloned into pCR2.1-TOPO (Invitrogen). The resulting plasmid was digested with AscI and NotI, and the excised hRluc-Neo fragment was ligated using the Promega Rapid Ligation Kit (Promega) into pH/SG-lucubineo-H775-NotIKO digested with the same enzymes.
as §5, with “cells/well). For the transient replication assay, Huh7-lunet cells in ice-cold phosphate buffered saline (PBS) were electroporated (BioRad electroporator; 950 uF, 270V) with 10 ug purified in vitro transcribed HCV replicon RNA, followed by resuspension in complete media and plating (8000 cells/well) into compound stamped 384-well plates. Luciferase activity of compound-treated cells was measured relative to DMSO-treated cells after 72 h incubation using RENILLA-GLO™ Luciferase Assay (Promega). Cytotoxicity (CC50) in the GT1b replicon cell line was analyzed using CELL TITER-GLO™ (Promega).” for “cells/well).”

In assay [4] the test system is GT1a replicon encoding NS5A mutation M28T. As to the kind of experiment: Transient replication assay, GT1a replicon with NS5A mutation M28T. The conditions noted are these: Hepatitis C virus.
For assay [5], the system named is GT1a replicon encoding NS5A mutation Y93H. Put plainly: Transient replication assay, GT1a replicon with NS5A mutation Y93H. The note with it: Hepatitis C virus.
[6] abbreviates: comparative table, GT 1a, read-out: EC50 (nM) 1a.
Where [7] appears, read: read-out: 1a EC50 (nM) 1a (H77S).

The term EC50 denotes the concentration giving half of the maximal effect. On to `COC(=O)N[C@H](C(=O)N1C[C@]2(CCCCO2)C[C@H]1c1ncc(-c2ccc(-c3ccc4c(ccc5nc([C@@H]6CCCN6C(=O)[C@@H](NC(=O)OC)C(C)C)[nH]c54)c3)cc2)[nH]1)C(C)C`, for which the concentration giving a half-maximal response (EC50) in assay [1] (read-out: EC50 (nM) 1a L31V) stood at 0.3 nM; in the assay on HCV GT 2a-J6 replicon, 27 nM; in assay [2] (read-out: EC50 (nM) 1a Y93C), 0.2 nM; in the assay on HCV GT 3a replicon, 1 nM; in assay [3] (read-out: EC50 (nM) 1a Q30R), 0.03 nM; with HCV GT 1a replicon (setting [6]), 0.01 nM. For the same compound, the EC50 was determined as 0.01 nM in assay [4] (read-out: EC50 (nM) 1a M28T) and 9 nM in assay [5] (read-out: EC50 (nM) 1a Y93H).
Consider `COC(=O)N[C@H](C(=O)N1C[C@@]2(CCCCO2)C[C@H]1c1ncc(-c2ccc(-c3ccc4c(ccc5nc([C@@H]6CCCN6C(=O)[C@@H](NC(=O)OC)C(C)C)[nH]c54)c3)cc2)[nH]1)C(C)C`, for which the EC50 in assay [1] (read-out: EC50 (nM) 1a L31V) was 44 nM; in the assay with HCV GT 2a-J6 replicon, 267 nM; in assay [2] (read-out: EC50 (nM) 1a Y93C), 0.7 nM; in the assay with HCV GT 3a replicon, 156 nM; in assay [3] (read-out: EC50 (nM) 1a Q30R) it was 5 nM; in the assay on HCV GT 1a replicon (setting [6]) it was 0.15 nM. Further, the concentration for a half-maximal effect (EC50) in assay [4] (read-out: EC50 (nM) 1a M28T) and in assay [5] (read-out: EC50 (nM) 1a Y93H) was 6 nM in each case.
On to `COC(=O)N[C@H](C(=O)N1C[C@]2(CCCO2)C[C@H]1c1ncc(-c2ccc(-c3ccc4c(ccc5nc([C@@H]6CCCN6C(=O)[C@@H](NC(=O)OC)C(C)C)[nH]c54)c3)cc2)[nH]1)C(C)C` [drawing 228], for which the EC50 came out at 0.4 nM in assay [1] (read-out: 1a EC50 (nM) L31V); 0.2 nM in assay [2] (read-out: 1a EC50 (nM) Y93C); 0.05 nM in assay [3] (read-out: 1a EC50 (nM) Q30R); 0.02 nM with HCV GT 1a replicon (setting [7]); 0.3 nM in assay [4] (read-out: 1a EC50 (nM) M28T); 15 nM in assay [5] (read-out: 1a EC50 (nM) Y93H).
For the compound `COC(=O)N[C@H](C(=O)N1C[C@]2(CCOC2)C[C@H]1c1ncc(-c2ccc(-c3ccc4c(ccc5nc([C@@H]6CCCN6C(=O)[C@@H](NC(=O)OC)C(C)C)[nH]c54)c3)cc2)[nH]1)C(C)C` [drawing 229], the concentration giving a half-maximal response (EC50) worked out at 11 nM in assay [1] (read-out: 1a EC50 (nM) L31V); 0.8 nM in assay [2] (read-out: 1a EC50 (nM) Y93C); 0.8 nM in assay [3] (read-out: 1a EC50 (nM) Q30R); 0.02 nM with HCV GT 1a replicon (setting [7]); 3 nM in assay [4] (read-out: 1a EC50 (nM) M28T); 42 nM in assay [5] (read-out: 1a EC50 (nM) Y93H).
In the case of `COC(=O)N[C@H](C(=O)N1C[C@@]2(CCOC2)C[C@H]1c1ncc(-c2ccc(-c3ccc4c(ccc5nc([C@@H]6CCCN6C(=O)[C@@H](NC(=O)OC)C(C)C)[nH]c54)c3)cc2)[nH]1)C(C)C` [drawing 230], the EC50 amounted to 1 nM in assay [1] (read-out: 1a EC50 (nM) L31V); 0.4 nM in assay [2] (read-out: 1a EC50 (nM) Y93C); 0.4 nM in assay [3] (read-out: 1a EC50 (nM) Q30R); 0.01 nM in the assay with HCV GT 1a replicon (setting [7]); 0.5 nM in assay [4] (read-out: 1a EC50 (nM) M28T); 7 nM in assay [5] (read-out: 1a EC50 (nM) Y93H).
Regarding `COC(=O)N[C@H](C(=O)N1C[C@@]2(CCCO2)C[C@H]1c1ncc(-c2ccc(-c3ccc4c(ccc5nc([C@@H]6CCCN6C(=O)[C@@H](NC(=O)OC)C(C)C)[nH]c54)c3)cc2)[nH]1)C(C)C` [drawing 231], the concentration giving a half-maximal response (EC50) was determined as 46 nM in assay [1] (read-out: 1a EC50 (nM) L31V); 0.2 nM in assay [2] (read-out: 1a EC50 (nM) Y93C); 3 nM in assay [3] (read-out: 1a EC50 (nM) Q30R); 0.06 nM in the assay with HCV GT 1a replicon (setting [7]); 14 nM in assay [4] (read-out: 1a EC50 (nM) M28T); 5 nM in assay [5] (read-out: 1a EC50 (nM) Y93H).
Consider `COC(=O)N[C@H](C(=O)N1CC2(CCOCC2)C[C@H]1c1ncc(-c2ccc(-c3ccc4c(ccc5nc([C@@H]6CCCN6C(=O)[C@@H](NC(=O)OC)C(C)C)[nH]c54)c3)cc2)[nH]1)C(C)C` [drawing 234], for which the EC50 in assay [1] (read-out: EC50 (nM) 1a L31V) was determined as 6 nM; in the assay on HCV GT 2a-J6 replicon it was 32 nM; in assay [2] (read-out: EC50 (nM) 1a Y93C), 1 nM; in the assay on HCV GT 3a replicon, 0.7 nM; in assay [3] (read-out: EC50 (nM) 1a Q30R) it was 1 nM; in the assay with HCV GT 1a replicon (setting [6]), 0.03 nM. Moreover, the values for the EC50 in assay [4] (read-out: EC50 (nM) 1a M28T) and in assay [5] (read-out: EC50 (nM) 1a Y93H) were 0.9 nM and 26 nM, respectively.
On to `COC(=O)N[C@H](C(=O)N1C[C@@]2(CCCOC2)C[C@H]1c1ncc(-c2ccc(-c3ccc4c(ccc5nc([C@@H]6CCCN6C(=O)[C@@H](NC(=O)OC)C(C)C)[nH]c54)c3)cc2)[nH]1)C(C)C` [drawing 235], for which the EC50 in assay [1] (read-out: EC50 (nM) 1a L31V) amounted to 0.1 nM; with HCV GT 2a-J6 replicon it was 50 nM; in assay [2] (read-out: EC50 (nM) 1a Y93C), 0.02 nM; in the assay with HCV GT 3a replicon, 297 nM; in assay [3] (read-out: EC50 (nM) 1a Q30R), 0.06 nM; with HCV GT 1a replicon (setting [6]), 0.01 nM. Further, the results for the EC50 in assay [4] (read-out: EC50 (nM) 1a M28T) and in assay [5] (read-out: EC50 (nM) 1a Y93H) were 0.03 nM and 1 nM, respectively.
